In patent US20260374739A1, “SMALL MOLECULAR WEIGHT CHEMICAL COMPOUND TO ANTAGONIZE EPH-EPHRIN TETRAMERIZATION AND INHIBIT BIDIRECTIONAL SIGNALING” (THE BOARD OF REGENTS OF THE UNIVERSITY OF TEXAS SYSTEM, priority 2022, published 2026):
“And” between values parts separate entries of the source, which are not always exact repeats. Equal entries are not always repeated. Where two headings read alike, the source gives them in different places.

Legend:
EphrinB2-EphB2 [1] = target: T1, EphrinB2-EphB2 (Homo sapiens, UniProt P29323); experiment: Octet tetramerization inhibition, immobilized human EphrinB2 binding to 50 nM soluble human EphB2
T1 construct: soluble human EphB1-His, EphB2-His, and EphB4-His ectodomains; commercially available human EphrinB1-Fc (EB1), EphrinB2-Fc (EB2), and EphrinB3-Fc (EB3) ectodomain proteins; purchased
T1 sequence (P29323 19-543 limits assumed): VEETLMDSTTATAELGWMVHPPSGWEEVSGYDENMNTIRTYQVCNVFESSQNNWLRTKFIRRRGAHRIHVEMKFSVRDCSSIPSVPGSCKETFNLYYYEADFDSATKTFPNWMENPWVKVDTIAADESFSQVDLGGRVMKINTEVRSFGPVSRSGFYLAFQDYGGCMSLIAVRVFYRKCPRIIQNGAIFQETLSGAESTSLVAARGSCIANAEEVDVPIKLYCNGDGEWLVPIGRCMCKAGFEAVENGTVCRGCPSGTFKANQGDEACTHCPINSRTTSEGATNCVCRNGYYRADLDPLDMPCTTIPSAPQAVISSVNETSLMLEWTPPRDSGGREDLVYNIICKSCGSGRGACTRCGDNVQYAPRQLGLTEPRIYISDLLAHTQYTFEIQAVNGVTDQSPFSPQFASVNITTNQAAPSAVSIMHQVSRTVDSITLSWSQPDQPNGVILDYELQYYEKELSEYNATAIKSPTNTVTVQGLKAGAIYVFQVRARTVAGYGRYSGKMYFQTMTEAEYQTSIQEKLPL

EphrinB2-EphB2 [2] = target: T1, EphrinB2-EphB2; experiment: Octet 80 sec association/500 sec dissociation, immobilized human EphrinB2-Fc binding to soluble human EphB2-His; details: for inhibition at 3.2 µM: EphB2, 25 nM EphB2, 3.2 μM compound, A20-I as max control, 0* = less than 0, no inhibition; for EphB2 Inhibition Percent, Inhibition of Association ONLY: at 3.2 μM and 80 seconds; for EphB2 Inhibition Percent, Inhibition of Association ONLY / EphB2 Inhibition Percent, Inhibition of Association-Dissociation: immobilized human EphrinB2, 25 nM soluble human EphB2; for EphB2 Inhibition Percent, Inhibition of Association-Dissociation: at 3.2 μM and 580 seconds
How it was run: (§1)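 EphrinB2-Fc captured on AHC biosensors, then soluble His-tagged EphB ectodomain (25 nM for % inhibition runs) associated 80 s and dissociated 500 s in PBS, 0.05% Tween-20, 1% DMSO ± compound. Compounds tested at 0.1–3.2 μM with a 10 μM max standard; IC50 from AUC of full traces or at 75 s and 135 s.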

EphrinB2-EphB1 = target: T2, EphrinB2-EphB1 (Homo sapiens, UniProt P54762); experiment: Octet 80 sec association/500 sec dissociation, immobilized human EphrinB2-Fc binding to soluble human EphB1-His; details: for inhibition at 3.2 µM: EphB1, 25 nM EphB1, 3.2 μM compound, A20-I as max control, 0* = less than 0, no inhibition; for EphB1 Inhibition Percent, Inhibition of Association ONLY: at 3.2 μM and 80 seconds; for EphB1 Inhibition Percent, Inhibition of Association ONLY / EphB1 Inhibition Percent, Inhibition of Association-Dissociation: immobilized human EphrinB2, 25 nM soluble human EphB1; for EphB1 Inhibition Percent, Inhibition of Association-Dissociation: at 3.2 μM and 580 seconds
T2 construct: soluble human EphB1-His, EphB2-His, and EphB4-His ectodomains; commercially available human EphrinB1-Fc (EB1), EphrinB2-Fc (EB2), and EphrinB3-Fc (EB3) ectodomain proteins; purchased
T2 sequence (P54762 18-540 limits assumed): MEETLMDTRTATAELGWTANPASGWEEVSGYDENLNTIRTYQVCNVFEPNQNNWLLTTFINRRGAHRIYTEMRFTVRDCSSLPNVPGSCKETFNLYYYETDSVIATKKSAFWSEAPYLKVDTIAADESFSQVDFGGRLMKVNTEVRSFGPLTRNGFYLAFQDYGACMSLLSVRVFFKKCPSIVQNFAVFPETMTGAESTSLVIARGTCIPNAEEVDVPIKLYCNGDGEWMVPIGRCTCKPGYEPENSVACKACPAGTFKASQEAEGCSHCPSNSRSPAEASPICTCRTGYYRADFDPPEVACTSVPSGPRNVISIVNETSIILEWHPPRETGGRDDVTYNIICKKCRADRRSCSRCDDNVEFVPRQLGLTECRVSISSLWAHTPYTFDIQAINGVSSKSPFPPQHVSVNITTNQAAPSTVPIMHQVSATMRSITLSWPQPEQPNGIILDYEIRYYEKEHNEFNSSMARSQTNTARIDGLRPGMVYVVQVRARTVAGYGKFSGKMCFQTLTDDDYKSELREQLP
Description: In another experiment, whether certain A20 analogs might have specificity for different Eph receptors was tested. An Octet RED384 system was used to obtain biophysical ON-OFF binding data (association-dissociation) for the three different human EphrinB2-EphB1, EphrinB2-EphB2, and EphrinB2-EphB4 protein-protein interactions and to assess the effect of A20 chemicals on the binding kinetics.
FIGS. 72A-72C show three example Octet sensorgram response traces for the immobilized human EphrinB2 ectodomain protein binding to soluble forms of the human EphB1, EphB2, and EphB4 ectodomain proteins, in the absence or presence of an A20 chemical (buffer conditions are always PBSTD:PBS with 0.05% Tween-20, 1% DMSO, and +/− indicated chemical). After loading EphrinB2-Fc protein to Octet AHC biosensors, washing, and obtaining stable baseline measurements in the appropriate PBSTD (either with or without indicated chemical), the sensors are placed in its buffer that also contains the indicated soluble EphB protein for the association step (0-80″), and then returned to its buffer for the dissociation step (81″-580″). In each figure (FIGS. 72A-72C), a sensorgram run using 10 μM of the 2×HCl salt form of A20-I is compared to the no compound control run to exemplify the maximum level of reduced response signal typically obtained with a potent A20 chemical.
Because the response levels during the dissociation step plateau for the EphrinB2-EphB2 and EphrinB2-EphB1 interactions by the first 80″, AUCs were also calculated for run data encompassing the first 160″ of each experiment to account for both the 80″ association data (red asterisks) and the first 80″ of dissociation data (marked by green line and asterisks).
The selectivity of another A20 analog (a 3×HCL salt form of compound BQPB4) in comparison to previously tested compound, A20-1, was tested as described in Example 27 above.
Further to the experiments listed above, a series of dose-response experiments were conducted to determine the IC50 of a selected A20 chemical (A20-1) on the kinetics of human EphrinB2 ligand ectodomain protein binding to its cognate human EphB1, EphB2, and EphB4 receptor ectodomain proteins. FIG. 74A-74C are representative sensorgrams showing the effect of 0, 0.1, 0.2, 0.4, 0.8, 1.6, and 3.2 μM, concentrations of the 2×HCl salt of A20-I along with a 10 μM max standard (also A20-1) on three different Ephrin-EphB interactions (e.g., EphB1 in FIG. 74A, EphB2 in FIG. 74B and EphB4 in FIG. 74C). […] Additional IC50 values were determined at specific timepoints, at 75″ into the association step and at 55″ into the dissociation step (135″).
All absolute and relative IC50 values are provided in the Table 6 below, where absolute are based off the full binding sensorgram traces, and relative are based off of the max control traces.
In another experiment, the % inhibition for various A20 analog chemicals against the three different EphrinB2-EphB protein interactions was determined. Specifically, the percent inhibition for immobilized human EphrinB2-Fc binding to 25 nM soluble human EphB1-His (FIG. 76A, enlarged in FIG. 76D), EphB2-His (FIG. 76B, enlarged in FIG. 76E), and EphB4-His (FIG. 76C, enlarged in FIG. 76F) with 3511-I, 8009-9255, QTM-Br, A19, A19-NO2, and IM (all at 3.2 μM) was determined.

EphrinB2-EphB4 = target: T3, EphrinB2-EphB4 (Homo sapiens, UniProt P54760); experiment: Octet 80 sec association/500 sec dissociation, immobilized human EphrinB2-Fc binding to soluble human EphB4-His; details: for inhibition at 3.2 µM: EphB4, 25 nM EphB4, 3.2 μM compound, A20-I as max control, 0* = less than 0, no inhibition; for EphB4 Inhibition Percent, Inhibition of Association ONLY: at 3.2 μM and 80 seconds; for EphB4 Inhibition Percent, Inhibition of Association ONLY / EphB4 Inhibition Percent, Inhibition of Association-Dissociation: immobilized human EphrinB2, 25 nM soluble human EphB4; for EphB4 Inhibition Percent, Inhibition of Association-Dissociation: at 3.2 μM and 580 seconds
T3 construct: soluble human EphB1-His, EphB2-His, and EphB4-His ectodomains; commercially available human EphrinB1-Fc (EB1), EphrinB2-Fc (EB2), and EphrinB3-Fc (EB3) ectodomain proteins; purchased
T3 sequence (P54760 16-539 limits assumed): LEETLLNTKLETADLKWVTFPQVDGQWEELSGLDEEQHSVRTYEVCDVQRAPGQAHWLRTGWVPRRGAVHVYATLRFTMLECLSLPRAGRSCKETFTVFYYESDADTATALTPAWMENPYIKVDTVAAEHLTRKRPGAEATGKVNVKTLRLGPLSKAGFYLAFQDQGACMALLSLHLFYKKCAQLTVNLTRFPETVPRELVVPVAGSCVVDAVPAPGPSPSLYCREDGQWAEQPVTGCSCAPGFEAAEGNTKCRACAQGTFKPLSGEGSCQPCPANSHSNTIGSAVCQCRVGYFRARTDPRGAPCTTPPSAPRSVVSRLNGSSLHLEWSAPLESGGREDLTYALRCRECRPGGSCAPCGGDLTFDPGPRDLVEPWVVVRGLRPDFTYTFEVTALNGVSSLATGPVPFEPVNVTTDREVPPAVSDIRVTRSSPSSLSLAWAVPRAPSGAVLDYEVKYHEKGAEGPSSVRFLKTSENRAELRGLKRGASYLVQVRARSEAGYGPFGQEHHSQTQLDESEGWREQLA
How it was run: as §1

[3] = tetramerization inhibitor IC50 (relative), association step, surmountable tetramer
[4] = read-out: % Inhibition: Association + Dissociation (160 sec)
[5] = read-out: % Inhibition: Association ONLY (80 sec)
[6] = Absolute AUC/IC50, Table A, EphrinB2-EphB2
[7] = Absolute Association IC50 (300 sec), Table A, EphrinB2-EphB2
[8] = Absolute Dissociation IC50 (450 sec), Table A, EphrinB2-EphB2
[9] = Relative AUC/IC50, Table A, EphrinB2-EphB2, compound 7: association only
[10] = Relative Association IC50 (300 sec), Table A, EphrinB2-EphB2
[11] = Relative Dissociation IC50 (450 sec), Table A, EphrinB2-EphB2

Structure (SMILES) | IC50 (EphrinB2-EphB2 [1]; [3]) [nM] | inhibition of EphrinB2-EphB interactions (EphrinB2-EphB2 [2]; 3.2 μM, EphB1, EphB2 and EphB4) | inhibition at 3.2 µM (EphrinB2-EphB2 [2]; [4]) [%] | inhibition at 3.2 µM (EphrinB2-EphB2 [2]; [5]) [%] | inhibition at 3.2 µM (EphrinB2-EphB1; [4]) [%] | inhibition at 3.2 µM (EphrinB2-EphB1; [5]) [%] | inhibition at 3.2 µM (EphrinB2-EphB4; [4]) [%] | inhibition at 3.2 µM (EphrinB2-EphB4; [5]) [%] | IC50 (EphrinB2-EphB2 [1]; [6]) | IC50 (EphrinB2-EphB2 [1]; [7]) [nM] | IC50 (EphrinB2-EphB2 [1]; [8]) [nM] | IC50 (EphrinB2-EphB2 [1]; [9]) | IC50 (EphrinB2-EphB2 [1]; [10]) [nM] | IC50 (EphrinB2-EphB2 [1]; [11]) | EphB2 Inhibition Percent, Inhibition of Association ONLY (EphrinB2-EphB2 [2]) | EphB2 Inhibition Percent, Inhibition of Association-Dissociation (EphrinB2-EphB2 [2]) | EphB1 Inhibition Percent, Inhibition of Association ONLY (EphrinB2-EphB1) | EphB1 Inhibition Percent, Inhibition of Association-Dissociation (EphrinB2-EphB1) | EphB4 Inhibition Percent, Inhibition of Association ONLY (EphrinB2-EphB4) | EphB4 Inhibition Percent, Inhibition of Association-Dissociation (EphrinB2-EphB4) [%]
O=S1(=O)CCN(Cc2cc(Br)c(O)c3ncccc23)CC1 [Compound 16, 4-((7-bromo-8-hydroxyquinolin-5-yl)methyl)thiomorpholine 1,1-dioxide] | ~800 | activity similar to A20-I max control | 74.5 | 59.5 | 48 | 33 | 37.2 | 18.1 | – | – | – | – | – | – | – | – | – | – | – | –
O=[N+]([O-])c1cc(CN2CCS(=O)(=O)CC2)c2cccnc2c1O [Compound 21, 4-((8-hydroxy-7-nitroquinolin-1-ium-5-yl)methyl)thiomorpholin-4-ium 1,1-dioxide chloride] | – | – | – | – | – | – | – | – | 1150 nM and 1950 nM | 1740 | 1700 | ~1000 nM and 890 nM | 910 | 1070 nM and 1000 nM | 36.7% and 57.0% | 51.7% and 69.2% | 24.0% and 23.8% | 36.0% and 28.9% | 0% and 4.3% | –
O=S1(=O)CCN(Cc2cc(Br)c(O)c3ncccc23)CC1 [Compound 17, 4-((7-bromo-8-hydroxyquinolin-1-ium-5-yl)methyl)thiomorpholin-4-ium 1,1-dioxide chloride] | – | – | – | – | – | – | – | – | 1480 nM | 1500 | 1260 | 810 nM | 890 | 780 nM | 59.5% | 74.5% | 33.0% | 48.0% | 18.1% | 37.2
OCc1ccc2c(CN3CCOCC3)ccc(O)c2n1 [Compound 12, 2-(hydroxymethyl)-5-(morpholinomethyl)quinolin-8-ol] | ~3000 | – | – | – | – | – | – | – | > 3200 nM | > 3200 | > 3200 | > 3200 nM | 2750 | 1480 nM | 48.1% | 48.1% | 17.4% | 17.4% | 11.0% | 11.0
